US20140113877A1, “NOVEL 3,4,4A,10B-TETRAHYDRO-1H-THIOPYRANO[4,3-C] ISOQUINOLINE COMPOUNDS” (Takeda GmbH, priority 2011, published 2014)

How the values were obtained:
[1] = biological target: T1, PDE4B1 (Homo sapiens, UniProt Q07343); test: Inhibition of PDE4B1 activity (SPA, [3H]cAMP); format: biochemical; conditions: recombinant PDE4B1, 0.5 μM cAMP; binned: below 8 / between 8 and 9; read-out: PDE4B1 inhibitory values measured as −logIC50 (converted)
T1 construct: made in house; host or cells: SF21 insect cells (baculovirus; virus prepared in SF9 cells)
Protocol: The PDE4B1 (GB no. L20966) was a gift of Prof. M. Conti (Stanford University, USA). It was amplified from the original plasmid (pCMV5) via PCR with primers Rb18 (5′-[…]-3′) and Rb10 (5′-[…]-3′) and cloned into the pCR-Bac vector (Invitrogen, Groningen, NL).
The recombinant baculovirus was prepared by means of homologous recombination in SF9 insect cells. The expression plasmids were cotransfected with Baculo-Gold DNA (Pharmingen, Hamburg) using a standard protocol (Pharmingen, Hamburg). Wt virus-free recombinant virus supernatants were selected using plaque assay methods. After that, high-titre virus supernatants were prepared by amplifying 3 times. PDE4B1 was expressed in SF21 cells by infecting 2×10^6 cells/ml with an MOI (multiplicity of infection) between 1 and 10 in the serum-free SF900 medium (GIBCO Life Technologies, Karlsruhe, Germany). The cells were cultured at 28° C. for 48-72 hours, after which they were pelleted for 5-10 min at 1000×g and 4° C.
The SF21 insect cells were resuspended, at a concentration of approx. 10^7 cells/ml, in ice-cold (4° C.) homogenization buffer (20 mM Tris, pH 8.2, containing the following additions: 140 mM NaCl, 3.8 mM KCl, 1 mM EGTA, 1 mM MgCl2, 10 mM β-mercaptoethanol, 2 mM benzamidine, 0.4 mM Pefablock, 10 μM leupeptin, 10 μM pepstatin A, 5 μM trypsin inhibitor) and disrupted by ultrasonication. The homogenate was then centrifuged for 10 min at 1000×g and the supernatant was stored at −80° C. until subsequent use (see below). The protein content was determined by the Bradford method (BioRad, Munich) using BSA (Bovine serum albumin) as the standard.
PDE4B1 activities were measured in a 96-well platform using SPA (scintillation proximity assay) yttrium silicate beads (RPNQ1050 from GE Healthcare). In a first step the PDE activity operated hydrolysis of either [^3H] cAMP (substrate) into [^3H] 5′AMP. In a second step substrate and product were distinguished following addition of SPA yttrium silicate beads. Indeed, in the presence of zinc sulphate the linear [^3H] […] Close proximity of bound [^3H] […] The test volume was 100 μl and finally contained 20 mM Tris buffer (pH 7.4), 0.1 mg/ml of BSA, 5 mM Mg^2+, 0.5 μM cAMP (including about 50,000 cpm of [3H]cAMP) as substrate, 1 μl of the respective substance dilution in DMSO and sufficient recombinant PDE (1000×g supernatant, see above) to ensure that 10-20% of the cAMP was converted under the said experimental conditions. […] After a preincubation of 5 min at 37° C., the reaction was commenced by adding the substrate (cAMP) and the assays were incubated for a further 15 min. Reactions were terminated by adding SPA beads (50 μl). In agreement with the manufacturer's instructions, the SPA beads had previously been resuspended in water, but were then diluted 1:3 (v/v) in water. This diluted solution further contained 3 mM IBMX (isobutylmethylxanthine) to ensure a complete block of PDE activity. Once the beads were sedimented (>30 min), the MTP's (microtiter plate) were analyzed in commercially available luminescence detection devices. The corresponding IC50 values of the compounds for inhibition of PDE4B1 activity were determined from the concentration-effect curves by means of non-linear regression.
For the following compounds PDE4B1 inhibitory values [measured as −logIC50 (mol/l)] below 8 and between 8 and 9 have been determined. The numbers of the compounds correspond to the numbers of the examples.

[2] = biological target: T2, human PDE5 (Homo sapiens, UniProt O76074); test: Inhibition of PDE5 activity (SPA, [3H]cGMP, platelet lysate); format: biochemical; conditions: 0.5 μM cGMP, binned: below 8 / between 8 and 9, read-out: PDE5 inhibitory values measured as −logIC50 (converted)
T2 construct: from tissue; host or cells: human platelets from fresh donor blood (platelet lysate)
Protocol: As a source for human PDE5, platelets were used. For that purpose, 150 ml fresh blood from human donors anticoagulated with citrate [final concentration 0.3% (w/v)] was centrifuged at 200 g for 10 min to obtain the so-called platelet-rich-plasma (PRP) as a supernatant. 1/10 volume of ACD solution (85 mM Na3-citrate, 111 mM D-glucose, 71 mM citric acid, pH 4.4) was added to 9/10 volume of PRP. After centrifugation (1,400 g, 10 min) the cell pellet was resuspended in 3 ml homogenization buffer (NaCl 140 mM, KCl 3.8 mM, EGTA (ethylene glycol tetraacetic acid) 1 mM, MgCl2 1 mM, Tris-HCl 20 mM, beta-mercaptoethanol 1 mM, pH 8.2) plus protease-inhibitor mix resulting in final concentrations of 0.5 mM Pefablock (Roche), 10 μM Leupeptin, 5 μM Trypsine inhibitor, 2 mM Benzamidin and 10 μM Pepstatin A. The suspension was sonicated and thereafter centrifuged for 15 min at 10,000 g. The resulting supernatant (platelet lysate) was used for enzymatic assays.
PDE5 activities were measured in a 96-well platform using SPA (scintillation proximity assay) yttrium silicate beads (RPNQ1050 from GE Healthcare). In a first step the PDE activity operated hydrolysis of either [^3H] cGMP (substrate) into [^3H] 5′GMP. In a second step substrate and product were distinguished following addition of SPA yttrium silicate beads. Indeed, in the presence of zinc sulphate the linear [^3H] […] Close proximity of bound [^3H] […] The test volume was 100 μl and contained 20 mM Tris buffer (pH 7.4), 0.1 mg of BSA (bovine serum albumin)/ml, 5 mM Mg^2+, 1 μM motapizone (PDE3 Inhibitor), 10 nM PDE2 inhibitor 2-(3,4-dimethoxybenzyl)-7-[(1R,2R)-2-hydroxy-1-(2-phenylethyl)propyl]-5-methylimidazo[5,1-f][1,2,4]triazin-4(3H)-one, 0.5 μM cGMP (cyclic guanosine monophosphate) (including about 50,000 cpm of [3H]cGMP as a tracer) (substrate), 1 μl of the respective compound dilution in dimethylsulfoxide (DMSO) and sufficient PDE5-containing platelet lysat (10,000×g supernatant, see above) to ensure that 10-20% of the cGMP was converted under the said experimental conditions. […] After a preincubation of 5 min at 37° C., the reaction was commenced by adding the substrate (cGMP) and the assay was incubated for a further 15 min. The reaction was terminated by adding SPA beads (50 μl). In agreement with the manufacturer's instructions, the SPA beads had previously been resuspended in water, but were then diluted 1:3 (v/v) in water. This diluted solution also contained 3 mM 8-methoxymethyl-3-isobutyl-1-methylxanthine (IBMX) to ensure a complete block of PDE activity. Once the beads were sedimented (>30 min), the MTP's were analyzed in commercially available luminescence detection devices. The corresponding IC50 values of the compounds for inhibition of PDE activity were determined from the concentration-effect curves by means of non-linear regression.
For the following compounds PDE5 inhibitory values [measured as −logIC50 (mol/l)] below 8 and between 8 and 9 have been determined. The numbers of the compounds correspond to the numbers of the examples.

T1 sequence (Q07343 whole entry): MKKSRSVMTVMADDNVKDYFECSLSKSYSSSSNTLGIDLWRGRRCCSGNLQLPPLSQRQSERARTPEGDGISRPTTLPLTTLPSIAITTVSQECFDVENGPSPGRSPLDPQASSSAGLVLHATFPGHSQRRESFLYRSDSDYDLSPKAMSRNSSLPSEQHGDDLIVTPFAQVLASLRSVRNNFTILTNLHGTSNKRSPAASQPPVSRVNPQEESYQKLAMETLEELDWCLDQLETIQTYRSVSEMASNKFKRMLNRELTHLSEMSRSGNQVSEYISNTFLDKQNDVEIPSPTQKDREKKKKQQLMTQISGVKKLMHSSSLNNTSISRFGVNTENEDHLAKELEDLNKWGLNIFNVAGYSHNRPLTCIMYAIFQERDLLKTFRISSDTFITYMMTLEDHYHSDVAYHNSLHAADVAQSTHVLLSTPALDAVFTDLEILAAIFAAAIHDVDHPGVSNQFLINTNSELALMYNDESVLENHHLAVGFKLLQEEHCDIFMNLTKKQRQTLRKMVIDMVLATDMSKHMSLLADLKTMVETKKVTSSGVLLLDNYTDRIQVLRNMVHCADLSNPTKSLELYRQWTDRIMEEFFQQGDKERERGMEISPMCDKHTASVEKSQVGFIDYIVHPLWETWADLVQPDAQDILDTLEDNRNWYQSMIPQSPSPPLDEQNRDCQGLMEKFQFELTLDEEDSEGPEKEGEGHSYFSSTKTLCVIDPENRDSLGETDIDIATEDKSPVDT

| SMILES | IC50 [1] [nM] | IC50 [2] [nM] |
| --- | --- | --- |
| CCOc1cc2c(cc1OC)C(c1ccc(C(=O)N3CCC(n4c(=O)c5sc(-c6ccc(F)cc6C)cc5n(Cc5ccc(OC)c(F)c5)c4=O)CC3)cc1)=N[C@@H]1CCSC[C@H]21 [Example 18, 3-[1-({4-[(4aR,10bR)-9-ethoxy-8-methoxy-3,4,4a,10b-tetrahydro-1H-thiopyrano[4,3-c]isoquinolin-6-yl]phenyl}carbonyl)piperidin-4-yl]-1-(3-fluoro-4-methoxybenzyl)-6-(4-fluoro-2-methylphenyl)thieno[3,2-d]pyrimidine-2,4(1H,3H)-dione] | > 10 | 1 to 10 |
| CCOc1cc2c(cc1OC)C(c1cccc(C(=O)N3CCC(n4c(=O)c5sc(-c6ccc7c(c6)OCO7)cc5n(Cc5ccc(OC)c(F)c5)c4=O)CC3)c1)=N[C@@H]1CCSC[C@H]21 [Example 20, 6-(1,3-benzodioxol-5-yl)-3-[1-({3-[(4aR,10bR)-9-ethoxy-8-methoxy-3,4,4a,10b-tetrahydro-1H-thiopyrano[4,3-c]isoquinolin-6-yl]phenyl}carbonyl)piperidin-4-yl]-1-(3-fluoro-4-methoxybenzyl)thieno[3,2-d]pyrimidine-2,4(1H,3H)-dione] | > 10 | 1 to 10 |
| CCOc1cc2c(cc1OC)C(c1ccc(C(=O)N3CCC(n4c(=O)c5sc(-c6cc(OC)ccc6OC)cc5n(Cc5ccc(OC)c(F)c5)c4=O)CC3)cc1)=N[C@@H]1CCSC[C@H]21 [Example 11, 6-(2,5-dimethoxyphenyl)-3-[1-({4-[(4aR,10bR)-9-ethoxy-8-methoxy-3,4,4a,10b-tetrahydro-1H-thiopyrano[4,3-c]isoquinolin-6-yl]phenyl}carbonyl)piperidin-4-yl]-1-(3-fluoro-4-methoxybenzyl)thieno[3,2-d]pyrimidine-2,4(1H,3H)-dione] | 1 to 10 | 1 to 10 |
| CCOc1cc2c(cc1OC)C(c1ccc(C(=O)N3CCC(n4c(=O)c5sc(-c6ccc(F)cc6OC)cc5n(Cc5ccc(OC)c(F)c5)c4=O)CC3)cc1)=N[C@@H]1CCSC[C@H]21 [Example 9, 3-[1-({4-[(4aR,10bR)-9-ethoxy-8-methoxy-3,4,4a,10b-tetrahydro-1H-thiopyrano[4,3-c]isoquinolin-6-yl]phenyl}carbonyl)piperidin-4-yl]-1-(3-fluoro-4-methoxybenzyl)-6-(4-fluoro-2-methoxyphenyl)thieno[3,2-d]pyrimidine-2,4(1H,3H)-dione] | 1 to 10 | 1 to 10 |

The next lines start with the values.

| IC50 [1] [nM] | IC50 [2] [nM] | SMILES |
| --- | --- | --- |
| 1 to 10 | 1 to 10 | CCOc1cc2c(cc1OC)C(c1ccc(C(=O)N3CCC(n4c(=O)c5sc(-c6ccc(F)cc6OC)cc5n(Cc5ccc(C)c(F)c5)c4=O)CC3)cc1)=N[C@@H]1CCSC[C@H]21 [Example 16, 3-[1-({4-[(4aR,10bR)-9-ethoxy-8-methoxy-3,4,4a,10b-tetrahydro-1H-thiopyrano[4,3-c]isoquinolin-6-yl]phenyl}carbonyl)piperidin-4-yl]-6-(4-fluoro-2-methoxyphenyl)-1-(3-fluoro-4-methylbenzyl)thieno[3,2-d]pyrimidine-2,4(1H,3H)-dione] |
| > 10 | 1 to 10 | CCOc1cc2c(cc1OC)C(c1cccc(C(=O)N3CCC(n4c(=O)c5sc(-c6ccccc6)cc5n(Cc5cc(F)c(OC)c(F)c5)c4=O)CC3)c1)=N[C@@H]1CCSC[C@H]21 [Example 21, 1-(3,5-difluoro-4-methoxybenzyl)-3-[1-({3-[(4aR,10bR)-9-ethoxy-8-methoxy-3,4,4a,10b-tetrahydro-1H-thiopyrano[4,3-c]isoquinolin-6-yl]phenyl}carbonyl)piperidin-4-yl]-6-phenylthieno[3,2-d]pyrimidine-2,4(1H,3H)-dione] |
| 1 to 10 | 1 to 10 | CCOc1cc2c(cc1OC)C(c1cccc(C(=O)N3CCC(n4c(=O)c5sc(-c6ccccc6)cc5n(Cc5ccc(OC)c(F)c5)c4=O)CC3)c1)=N[C@@H]1CCSC[C@H]21 [Example 2, 3-[1-({3-[(4aR,10bR)-9-ethoxy-8-methoxy-3,4,4a,10b-tetrahydro-1H-thiopyrano[4,3-c]isoquinolin-6-yl]phenyl}carbonyl)piperidin-4-yl]-1-(3-fluoro-4-methoxybenzyl)-6-phenylthieno[3,2-d]pyrimidine-2,4(1H,3H)-dione] |
| 1 to 10 | 1 to 10 | CCOc1cc2c(cc1OC)C(c1ccc(C(=O)N3CCC(n4c(=O)c5sc(-c6ccccc6)cc5n(Cc5cc(OC)c(OC)cc5F)c4=O)CC3)cc1)=N[C@@H]1CCSC[C@H]21 [Example 5, 3-[1-({4-[(4aR,10bR)-9-ethoxy-8-methoxy-3,4,4a,10b-tetrahydro-1H-thiopyrano[4,3-c]isoquinolin-6-yl]phenyl}carbonyl)piperidin-4-yl]-1-(2-fluoro-4,5-dimethoxybenzyl)-6-phenylthieno[3,2-d]pyrimidine-2,4(1H,3H)-dione] |
| 1 to 10 | 1 to 10 | CCOc1cc2c(cc1OC)C(c1ccc(C(=O)N3CCC(n4c(=O)c5sc(-c6ccccc6)cc5n(Cc5ccc(OC)c(F)c5F)c4=O)CC3)cc1)=N[C@@H]1CCSC[C@H]21 [Example 4, 1-(2,3-difluoro-4-methoxybenzyl)-3-[1-({4-[(4aR,10bR)-9-ethoxy-8-methoxy-3,4,4a,10b-tetrahydro-1H-thiopyrano[4,3-c]isoquinolin-6-yl]phenyl}carbonyl)piperidin-4-yl]-6-phenylthieno[3,2-d]pyrimidine-2,4(1H,3H)-dione] |
